The numbers were not newly measured in patent publication US20260283943A1, “STARCHLESS MOLDING PROCESS FOR ORAL PRODUCTS” (NICOVENTURES TRADING LIMITED, priority 2023, published 2026), which cites them from elsewhere.

The conditions of series [1]: isolated substance.

Molecules are shown by their SMILES.

Turning to `C=C(C)[C@@H]1CCC(C)=C[C@H]1c1c(O)cc(CCCCC)cc1O` [CBD, cannabidiol, reference compound], the Solubility in water entry is listed as “insoluble in an aqueous environment”. As for `COC(=O)/C=C/C(C)=C\C=C\C(C)=C\C=C\C=C(C)\C=C\C=C(C)\C=C\C(=O)O` [bixin, (2E,4E,6E,8E,10E,12E,14E,16Z,18E)-20-methoxy-4,8,13,17-tetramethyl-20-oxoicosa-2,4,6,8,10,12,14,16,18-nonaenoic acid], the Solubility in water entry is “insoluble in water”. The Chemical stability entry in series [1] was “chemically unstable when isolated”.
